{
  "source": "patent US20180028480A1",
  "about": "“METHODS OF REDUCING OR PREVENTING OXIDATIVE MODIFICATION OF MEMBRANE POLYUNSATURATED FATTY ACIDS” (Amarin Pharmaceuticals Ireland Limited, priority 2015, published 2018)",
  "key": {"[1]": {"assay": "X-ray diffraction of cholesterol-enriched POPC membranes without oxidative conditions (Example 8)", "conditions": "5 mol %, 50 mol % cholesterol, 15° C., 20° C.", "protocol": "Values are mean±S.D. (N=3).\nFIGS. 18A-18C show representative x-ray diffraction patterns collected from cholesterol-enriched model membranes treated with vehicle (control), eicosapentaenoic acid (EPA), or docosahexaenoic acid (DHA) and examined at 15° C., 20° C., and 30° C. Membranes were reconstituted from POPC and cholesterol at 50 mol % cholesterol and treated with each of the various agents at 5 mol % (to match treatments used in corresponding lipid dynamics experiments). Each sample was maintained at 74% relative humidity by exposing the samples to a saturated solution of L-(+) tartaric acid. […] DHA, but not EPA or vehicle, induced the formation of cholesterol domains, which are indicated by a distinct set of diffraction peaks (shaded peaks) having a characteristic d-space value of 34 Å and shown to be stable over a broad range of temperatures.\n(§1) Multilamellar vesicles (MLVs) were prepared as binary mixtures of POPC and cholesterol at 50 mol %. MLVs with DLPC and cholesterol at cholesterol-to-phospholipid (C/P) mole ratios of 0.1:1 to 1.1:1 were also prepared in a similar manner. Component lipids (in chloroform) were transferred to borosilicate culture tubes and combined with vehicle (ethanol) or an equal volume of EPA, DHA, fenofibrate, niacin or gemfibrozil stock solution(s) and adjusted to achieve a drug-to-phospholipid (D/P) mole ratio of 1:30. Membranes reconstituted from POPC and cholesterol (at 50 mol % cholesterol) were treated with each of the various agents at 5 mol %. Samples were then shell-dried under nitrogen gas and placed under vacuum for 3 hours to remove residual solvent.\nMembrane samples were oriented for x-ray diffraction analysis as described in Mason, et al., J. Biol. Chem., vol. 281, pages 9337-45 (2006). Briefly, 100 μL aliquots of each MLV preparation (containing 250 μg of phospholipid) were transferred to Lucite sedimentation cells fitted with a removable aluminum foil substrate designed to collect MLVs into a single membrane pellet upon centrifugation. […]"}, "[2]": {"test_system": "Human umbilical vein endothelial cells (HUVECs)", "assay": "Nitric oxide release from HUVECs incubated with pretreated oxidized sdLDL (Example 7)", "assay_type": "cell-based", "conditions": "oxidized sdLDL pretreated at 10.0 μM", "protocol": "All samples, with the exception of non-oxidized sdLDL controls, were subjected to copper-induced oxidation for 1 hour. Human umbilical vein endothelial cells (HUVECs) were incubated with the various sdLDL samples, stimulated with calcium, and monitored for nitric oxide (NO) and peroxynitrite (ONOO^-) release using nanosensor technology."}, "[3]": {"assay": "LOOH formation in glucose-treated model membranes, EPA versus EA and ETE (Example 5)", "assay_type": "biochemical", "conditions": "FIG. 8", "protocol": "An experiment was conducted to compare the ability of EPA to prevent lipid hydroperoxide formation in model membranes treated with glucose to two other 20-carbon fatty acids: eicosanoic acid (“EA,” also referred to as arachidic acid, C20:0) and eicosatrienoic acid (“ETE,” C20:3, n-3). All MLV samples were subjected to time-dependent autoxidation by incubating at 37° C. in an uncovered, shaking water bath. This method allows lipid peroxidation to occur gradually without requiring the use of exogenous initiators. Small aliquots (5-100 μL) of each sample were removed, immediately following MLV preparation (0 hr) and after exposing samples to oxidative conditions for 72 or 96 hr, and combined with 1.0 mL of activated CHOD-iodide color reagent. Aliquot volume was reduced with each successive time point to ensure that spectrophotometric readings were within the optimal adsorption range. Test samples were covered and incubated in darkness at room temperature for at least 4 hr. Sample absorbances were then measured against a CHOD blank at 365 nm using a Beckman DU-640 spectrophotometer. The CHOD colorimetric assay is based on the oxidation of iodide (I^−) by lipid hydroperoxide (LOOH) to form triiodide (I3^−), the quantity of which is directly proportional to the amount of LOOH present in the lipid sample. The molar absorptivity (ε) of I3^− is 2.46×10^4 M^−1 cm^−1 at 365 nm."}, "[4]": {"assay": "X-ray diffraction of glucose-treated DLPC/cholesterol membranes under oxidative conditions (Example 8)", "conditions": "10.0 μM; 0.6 C/P; glucose-induced lipid peroxidation 72 hours (FIG. 14)", "protocol": "Values are reported as mean±S.D. (N=3).\n[…] Membranes were reconstituted from DLPC and cholesterol at a C/P mole ratio of 0.6:1 and treated with the various agents to achieve a total drug-to-phospholipid mole ratio of 1:30.\nas §1\nAfter drying, each sample was resuspended in glucose-free or glucose-containing saline buffer to yield a final phospholipid concentration of 2.5 mg/mL. Lipid suspensions were then vortexed for 3 minutes at ambient temperature to form MLVs.\nMembrane samples were oriented for x-ray diffraction analysis as described in Mason, et al., J. Biol. Chem., vol. 281, pages 9337-45 (2006). Briefly, 100 μL aliquots of each MLV preparation (containing 250 μg of phospholipid) were transferred to Lucite sedimentation cells fitted with a removable aluminum foil substrate designed to collect MLVs into a single membrane pellet upon centrifugation. Samples were then loaded into a Sorvall AH-629 swinging bucket ultracentrifuge rotor (DuPont Corp., Wilmington, Del.) and centrifuged at 35,000 g, 5° C., for 1.5 hours.\nFollowing membrane orientation, sample supernatants were aspirated and aluminum foil substrates mounted onto curved glass slides. The membrane samples were then placed in hermetically sealed containers in which temperature and relative humidity were controlled during x-ray diffraction analysis. Data reported in this study were collected at 20° C. and 74% relative humidity.\nThis technique allows for precise measurement of the unit cell periodicity, or d-space, of the membrane lipid bilayer, which is the distance from the center of one lipid bilayer to the next, including surface hydration.\nThe presence of cholesterol domains in a given membrane sample results in the production of distinct Bragg (diffraction) peaks that have singular periodicity values of 34 Å and 17 Å. These peaks are typically referred to as first- and second-order cholesterol domain peaks."}},
  "data": [
    {"smiles": "CC/C=C\\C/C=C\\C/C=C\\C/C=C\\C/C=C\\CCCC(=O)O", "note": "[EPA, cis-5,8,11,14,17-Eicosapentaenoic acid]", "values": [
      {"measurement": "membrane width (d-space) compared to DHA or vehicle", "setting": "[1]; 30° C. (FIG. 17)", "value": "increased the width (d-space)"},
      {"measurement": "membrane cholesterol domain formation", "setting": "[1]; 30° C. (FIG. 18)", "value": "did not induce cholesterol domain formation"},
      {"measurement": "increase of NO release as compared to non-oxidized sdLDL treatment", "setting": "[2]", "value": 23, "unit": "%"},
      {"measurement": "increase of NO release as compared to oxidized LDL treatment", "setting": "[2]", "value": 53, "unit": "%"},
      {"measurement": "LOOH formation compared to vehicle, glucose, glucose and EA, glucose and ETE", "setting": "[3]", "value": "significantly less LOOH formation"},
      {"measurement": "effect on d-space values", "setting": "[4]", "value": "significantly inhibited glucose-induced reductions and peroxidation-induced reductions in d-space values"}
    ]}
  ]
}
